In ChEMBL document CHEMBL5665443, “Enzyme Inhibitor Single Concentration assay results for EUbOPEN Chemogenomics Library” (2024):

Legend:
Conditions in all cases: Hit No
[1] = target: T1, Endonuclease 8-like 2 (Homo sapiens) (UniProt Q969S2);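 note: fluorescence at 594 nm reports NEIL2 cutting and release of a quenched double-stranded DNA oligo substrate, reduced signal read as inhibition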
T1 sequence (whole entry): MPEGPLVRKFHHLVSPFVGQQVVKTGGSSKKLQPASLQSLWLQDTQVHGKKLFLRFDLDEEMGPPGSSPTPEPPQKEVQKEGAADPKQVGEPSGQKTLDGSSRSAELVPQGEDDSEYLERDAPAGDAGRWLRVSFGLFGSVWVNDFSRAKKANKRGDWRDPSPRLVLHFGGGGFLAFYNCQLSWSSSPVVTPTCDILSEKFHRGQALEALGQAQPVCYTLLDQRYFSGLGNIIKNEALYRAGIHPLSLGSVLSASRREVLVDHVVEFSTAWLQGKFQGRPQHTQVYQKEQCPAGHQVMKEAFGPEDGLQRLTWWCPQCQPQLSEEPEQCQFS
Description: Inhibition of NEIL2 by quantifying inhibition of NEIL2-mediated cleavage and dissociation of quenched duplex DNA oligonucleotides, measured as fluorescence at 594 nm.

[2] = target: T2, Single-strand selective monofunctional uracil DNA glycosylase (Homo sapiens) (UniProt Q53HV7);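 note: enzymatic SMUG1 assay coupled with APE1, reading fluorescence at 594 nm released when a quenched double-stranded DNA oligonucleotide substrate is cleaved and separated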
T2 sequence (whole entry): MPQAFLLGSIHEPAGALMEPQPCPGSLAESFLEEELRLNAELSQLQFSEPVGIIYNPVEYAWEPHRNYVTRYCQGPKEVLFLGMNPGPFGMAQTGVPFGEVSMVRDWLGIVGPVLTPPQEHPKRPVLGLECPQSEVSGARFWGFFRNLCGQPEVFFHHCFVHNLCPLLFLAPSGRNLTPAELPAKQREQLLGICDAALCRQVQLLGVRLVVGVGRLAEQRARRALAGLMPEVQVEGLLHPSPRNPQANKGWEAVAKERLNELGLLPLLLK
Description: Inhibition of SMUG1 by quantifying inhibition of SMUG1-mediated cleavage and dissociation of quenched duplex DNA oligonucleotides, measured as fluorescence at 594 nm. To generate a functional strand incision and increase turn-over this assay is coupled to APE1.

[3] = target: T3, Adenine DNA glycosylase (Homo sapiens) (UniProt Q9UIF7);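 note: human MUTYH activity read as 594 nm fluorescence from cleavage and release of a quenched DNA duplex, coupled with APE1 for strand incision, lower signal meaning inhibition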
T3 sequence (whole entry): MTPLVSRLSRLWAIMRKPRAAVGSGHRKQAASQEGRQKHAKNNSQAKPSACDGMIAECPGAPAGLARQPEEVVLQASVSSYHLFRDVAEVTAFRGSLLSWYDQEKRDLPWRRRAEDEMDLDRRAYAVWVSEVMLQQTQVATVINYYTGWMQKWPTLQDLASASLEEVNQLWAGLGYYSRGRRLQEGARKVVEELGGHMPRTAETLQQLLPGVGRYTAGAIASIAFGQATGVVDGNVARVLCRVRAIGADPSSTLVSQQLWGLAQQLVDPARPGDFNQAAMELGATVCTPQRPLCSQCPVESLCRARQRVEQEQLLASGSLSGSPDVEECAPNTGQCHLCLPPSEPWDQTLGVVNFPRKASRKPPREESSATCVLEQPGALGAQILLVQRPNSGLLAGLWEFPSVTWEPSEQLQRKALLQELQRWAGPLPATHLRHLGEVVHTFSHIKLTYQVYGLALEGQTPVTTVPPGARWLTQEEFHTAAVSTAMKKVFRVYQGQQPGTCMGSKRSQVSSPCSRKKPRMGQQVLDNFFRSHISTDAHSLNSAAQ
Description: Inhibition of MUTYH by quantifying inhibition of MUTYH-mediated cleavage and dissociation of quenched duplex DNA oligonucleotides, measured as fluorescence at 594 nm. To generate a functional strand incision and increase turn-over this assay is coupled to APE1.

[4] = target: T4, Endonuclease III-like protein 1 (Homo sapiens) (UniProt P78549);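 note: enzyme assay tracking NTHL1 cutting and release of a quenched double-stranded DNA oligo substrate, read as fluorescence at 594 nm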
T4 sequence (whole entry): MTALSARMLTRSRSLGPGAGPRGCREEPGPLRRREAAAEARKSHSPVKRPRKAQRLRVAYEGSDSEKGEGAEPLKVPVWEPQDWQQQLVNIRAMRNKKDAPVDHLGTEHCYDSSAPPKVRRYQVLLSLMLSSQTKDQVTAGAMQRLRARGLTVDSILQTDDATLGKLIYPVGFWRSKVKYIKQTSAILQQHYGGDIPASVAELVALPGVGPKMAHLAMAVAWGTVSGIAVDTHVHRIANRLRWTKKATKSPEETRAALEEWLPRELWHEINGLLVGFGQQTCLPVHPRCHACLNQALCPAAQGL
Description: Inhibition of NTHL1 by quantifying inhibition of NTHL1-mediated cleavage and dissociation of quenched duplex DNA oligonucleotides, measured as fluorescence at 594 nm.

[5] = target: Methyl-CpG-binding domain protein 4 (Homo sapiens) (UniProt O95243);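 note: MBD4 activity read as fluorescence at 594 nm from cleavage and release of a quenched duplex DNA oligonucleotide, with APE1 coupled to incise the strand and raise turnover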
Methyl-CpG-binding domain protein 4 (Homo sapiens), sequence (O95243 whole entry, the tested form may be a part): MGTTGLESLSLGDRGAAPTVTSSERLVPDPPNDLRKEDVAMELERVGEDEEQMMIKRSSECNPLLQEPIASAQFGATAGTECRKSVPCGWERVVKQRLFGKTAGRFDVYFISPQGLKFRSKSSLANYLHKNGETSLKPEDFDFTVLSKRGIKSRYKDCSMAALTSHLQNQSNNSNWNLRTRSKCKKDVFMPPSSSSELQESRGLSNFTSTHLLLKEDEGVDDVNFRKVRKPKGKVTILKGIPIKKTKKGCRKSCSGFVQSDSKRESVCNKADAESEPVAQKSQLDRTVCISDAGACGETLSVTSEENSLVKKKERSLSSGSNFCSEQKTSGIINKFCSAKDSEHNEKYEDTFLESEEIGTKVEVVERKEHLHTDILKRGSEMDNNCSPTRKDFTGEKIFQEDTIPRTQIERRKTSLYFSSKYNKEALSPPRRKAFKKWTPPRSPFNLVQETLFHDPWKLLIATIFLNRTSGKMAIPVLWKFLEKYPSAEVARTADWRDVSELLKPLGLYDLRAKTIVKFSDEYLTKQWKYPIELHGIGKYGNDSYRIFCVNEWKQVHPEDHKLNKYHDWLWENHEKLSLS
Description: Inhibition of MBD4 by quantifying inhibition of MBD4-mediated cleavage and dissociation of quenched duplex DNA oligonucleotides, measured as fluorescence at 594 nm. To generate a functional strand incision and increase turn-over this assay is coupled to APE1.

[6] = target: N-glycosylase/DNA lyase (Homo sapiens) (UniProt O15527);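 note: OGG1 cleavage of a quenched duplex DNA oligonucleotide, coupled to APE1 for strand incision, read as fluorescence at 594 nm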
N-glycosylase/DNA lyase (Homo sapiens), sequence (O15527 whole entry): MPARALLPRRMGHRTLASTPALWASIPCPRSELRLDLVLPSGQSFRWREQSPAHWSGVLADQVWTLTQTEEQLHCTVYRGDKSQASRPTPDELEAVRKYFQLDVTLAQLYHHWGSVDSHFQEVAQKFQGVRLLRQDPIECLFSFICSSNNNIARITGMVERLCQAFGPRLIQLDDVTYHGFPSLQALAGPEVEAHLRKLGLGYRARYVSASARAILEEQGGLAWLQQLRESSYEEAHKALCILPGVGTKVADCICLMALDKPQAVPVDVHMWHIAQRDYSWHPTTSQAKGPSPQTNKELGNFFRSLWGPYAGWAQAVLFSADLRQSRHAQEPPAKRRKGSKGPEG
Description: Inhibition of OGG1 by quantifying inhibition of OGG1-mediated cleavage and dissociation of quenched duplex DNA oligonucleotides, measured as fluorescence at 594 nm. To generate a functional strand incision and increase turn-over this assay is coupled to APE1.

[7] = target: Uracil-DNA glycosylase (Homo sapiens) (UniProt P13051);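 note: UNG excision on a quenched double-stranded DNA oligo probe, with APE1 added for strand incision and turnover, read as fluorescence at 594 nm as strands separate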
Uracil-DNA glycosylase (Homo sapiens), sequence (P13051 whole entry): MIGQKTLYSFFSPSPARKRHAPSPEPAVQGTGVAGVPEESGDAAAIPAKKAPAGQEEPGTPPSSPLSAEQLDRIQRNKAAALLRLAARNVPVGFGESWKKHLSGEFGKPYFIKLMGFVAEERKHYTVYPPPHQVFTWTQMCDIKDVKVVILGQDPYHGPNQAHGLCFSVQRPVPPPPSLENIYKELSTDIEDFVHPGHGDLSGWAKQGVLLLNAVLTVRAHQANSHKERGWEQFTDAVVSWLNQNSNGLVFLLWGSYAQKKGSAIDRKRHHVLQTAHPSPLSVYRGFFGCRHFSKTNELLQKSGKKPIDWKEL
Description: Inhibition of UNG by quantifying inhibition of UNG-mediated cleavage and dissociation of quenched duplex DNA oligonucleotides, measured as fluorescence at 594 nm. To generate a functional strand incision and increase turn-over this assay is coupled to APE1.

[8] = target: G/T mismatch-specific thymine DNA glycosylase (Homo sapiens) (UniProt Q13569);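 note: human TDG cleavage of quenched duplex DNA oligonucleotides coupled to APE1, strand release read as fluorescence at 594 nm, inhibition of TDG activity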
G/T mismatch-specific thymine DNA glycosylase (Homo sapiens), sequence (Q13569 whole entry): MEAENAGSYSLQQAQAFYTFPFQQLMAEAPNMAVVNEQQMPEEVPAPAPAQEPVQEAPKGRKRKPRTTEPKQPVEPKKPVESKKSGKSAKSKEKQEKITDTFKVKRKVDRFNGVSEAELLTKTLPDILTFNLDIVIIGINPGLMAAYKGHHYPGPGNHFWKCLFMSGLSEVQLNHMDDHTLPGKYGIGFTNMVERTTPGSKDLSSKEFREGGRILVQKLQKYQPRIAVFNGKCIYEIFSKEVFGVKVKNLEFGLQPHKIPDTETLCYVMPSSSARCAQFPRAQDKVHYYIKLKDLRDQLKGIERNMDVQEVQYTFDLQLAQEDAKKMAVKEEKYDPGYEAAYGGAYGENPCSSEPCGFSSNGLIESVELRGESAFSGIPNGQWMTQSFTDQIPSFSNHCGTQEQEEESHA
Description: Inhibition of TDG by quantifying inhibition of TDG-mediated cleavage and dissociation of quenched duplex DNA oligonucleotides, measured as fluorescence at 594 nm. To generate a functional strand incision and increase turn-over this assay is coupled to APE1.

Row | Structure (SMILES) | inhibition ([1]; Compound Concentration 10.0 uM) [%] | inhibition ([2]; Compound Concentration 10.0 uM) [%] | inhibition ([3]; Compound Concentration 10.0 uM) [%] | inhibition ([4]; Compound Concentration 10.0 uM) [%] | inhibition ([5]; Compound Concentration 10.0 uM) [%] | inhibition ([6]; Compound Concentration 10.0 uM) [%] | inhibition ([7]; Compound Concentration 10.0 uM) [%] | inhibition ([8]; Compound Concentration 10.0 uM) [%] | inhibition ([1]; Compound Concentration 1.0 uM) [%] | inhibition ([2]; Compound Concentration 1.0 uM) [%] | inhibition ([3]; Compound Concentration 1.0 uM) [%] | inhibition ([4]; Compound Concentration 1.0 uM) [%] | inhibition ([5]; Compound Concentration 1.0 uM) [%] | inhibition ([6]; Compound Concentration 1.0 uM) [%] | inhibition ([7]; Compound Concentration 1.0 uM) [%] | inhibition ([8]; Compound Concentration 1.0 uM) [%]
1 | Cn1cc(C(=O)O)c2ccc(N3CCC(OCc4c(-c5c(Cl)cccc5Cl)noc4C4CC4)CC3)cc21 | 0.531 | -2.05 | 2.96 | 8.57 | 64.1 | 24 | -3.65 | 99.9 |  |  |  |  |  |  |  | 
2 | O=C(Nc1ccc(-n2nc(-c3cccnc3)cc2C(F)(F)F)cn1)c1ccc(-c2ccccc2)c(F)c1 |  |  |  |  |  |  |  |  | 4.61 | 24.9 | -4.64 | 0.685 | 59.3 | 18.5 | 6.15 | 56.1
3 | O=C(O)Cc1cc(I)c(Oc2ccc(O)c(I)c2)c(I)c1 | -3.55 | 30.4 | -6.77 | 15.2 | 63.6 | 32.3 | 3.85 | 40.4 |  |  |  |  |  |  |  | 
4 | O=C(O)[C@H]1[C@H](Cn2nnc3ccccc3c2=O)CC[C@@H]1C(=O)c1ccc(OCCC2CCOCC2)cc1 |  |  |  |  |  |  |  |  | -9.93 | 17 | 7.33 | 2 | 58.9 | 2.93 | -2.04 | 51.4
5 | C[C@@H]1CCN(C(=O)CC#N)C[C@@H]1N(C)c1ncnc2[nH]ccc12 |  |  |  |  |  |  |  |  | -1.11 | 24.1 | 9.35 | 10.6 | 20.6 | 4.23 | 6.67 | 61.6
6 | COc1cc(Nc2nc(C)cc(-c3cnn4nc(OC)ccc34)n2)cc(C(F)(F)F)c1 | 2.66 | 16.3 | -7.4 | 8.46 | 26.4 | -9.1 | -0.61 | 47.8 |  |  |  |  |  |  |  | 
7 | O=C1CCc2cc(Nc3cc(OC4CCOCC4)c([N+](=O)[O-])cc3Cl)ccc2N1 | 4.87 | 24.3 | 12.7 | 5.94 | 65.2 | 46.7 | 4.09 | 79.3 |  |  |  |  |  |  |  | 
8 | CN1C(=O)[C@@H](N2CCc3cn(Cc4ccccc4)nc3C2=O)COc2ccccc21 |  |  |  |  |  |  |  |  | -5.67 | 12.5 | 5.54 | 1.82 | 21.1 | 5.71 | 2.22 | 42.8
9 | Cc1c(NC(=O)COc2ccc(Cl)cc2C(=O)c2cc(F)cc(C(F)(F)F)c2)ccc(C(=O)O)c1F | 17.9 | 10.3 | 7.33 | -8.52 | 59.6 | 35.9 | 4.37 | 58.6 |  |  |  |  |  |  |  | 
10 | COC(=O)c1sccc1S(=O)(=O)Nc1ccc(Nc2ccccc2)cc1OC | 1.55 | 18.2 | -9.5 | -7.86 | 58 | 3.38 | 0.459 | 40.6 |  |  |  |  |  |  |  | 
11 | CC(=O)Nc1c(C(C)=O)c(=O)n(C)c2nc(-c3ccc(Cl)cc3Cl)c(-c3ccc(Cl)cc3)cc12 | 5.63 | 9.09 | 22.8 | -6.55 | 61 | 2.2 | 1.63 | 47.2 |  |  |  |  |  |  |  | 
12 | COc1ccc(COc2ccc(Cc3cnc(N)nc3N)cc2OC)cc1 | -2.46 | 6.38 | -3.46 | -8.98 | 24.9 | 6.26 | -0.384 | 46.5 |  |  |  |  |  |  |  | 
13 | CO[C@@H](C)c1c(Nc2ccc([C@H](N(C)C(=O)C3CCS(=O)(=O)CC3)C(F)(F)F)cc2)cnc2cc(Cl)nn12 | 5.63 | -7.05 | -6.71 | -3.92 | 77.6 | -4 | -1.74 | 48.6 |  |  |  |  |  |  |  | 
14 | COc1nc2ccc([C@@](O)(c3ccccc3)C3CCN(C(C)=O)CC3)cc2c(Cl)c1Cc1ccc(-n2cccn2)cc1 | -7.63 | 22.3 | 5.36 | -1.29 | 64.6 | 10.5 | 10.2 | 48.5 |  |  |  |  |  |  |  | 
15 | CC1=C(C#N)C(c2ccc3[nH]nc(C)c3c2)C(C#N)=C(C)N1 | 1.25 | 17.6 | 18.6 | 7.43 | 24.9 | 4.91 | 2.96 | 72.9 |  |  |  |  |  |  |  | 
16 | Cc1nc(-c2ccc(C(F)(F)F)cc2)sc1C(=O)NCc1ccc(OC(C)(C)C(=O)O)cc1 | -7.38 | 17.9 | 6.62 | -7.86 | 62.8 | 20.2 | 5.42 | 53.6 |  |  |  |  |  |  |  | 
17 | O=C(N1CCS(=O)(=O)CC1)N1C[C@H](c2ccc(OC(F)(F)F)cc2)C[C@H](c2nc(C3CC3)no2)C1 | -9.67 | 9.87 | 1.64 | -9.83 | 55.6 | 1.66 | -2.41 | 56.4 |  |  |  |  |  |  |  | 
18 | CC(=O)N1CCC(c2ccc(C(=O)NC3=NCCN3)cc2C(F)(F)F)CC1 | 6.91 | 11.2 | 6.4 | 13.2 | 57 | -3.66 | -0.0445 | 48.7 |  |  |  |  |  |  |  | 
19 | COc1cc(F)ccc1-c1ncnc(Nc2cccc(C[S@](C)(=N)=O)c2)n1 | -10 | 21.4 | -2.6 | -0.61 | -7.86 | 9.82 | 2.17 | 49.6 |  |  |  |  |  |  |  | 
20 | CN1CCN(C(=O)C(C)(C)c2ccc(C(=O)Nc3cn4cc(-c5cc(C(C)(C)C)cc(C(C)(C)C)c5)ccc4n3)cc2)CC1 | -7.12 | 11.1 |  | -6.55 | -6.81 | 18.8 | 2.56 | 15.4 |  | 20 | -8.55 | -0.61 | -6.71 |  | 3.16 | 41
21 | CCn1c(=O)c(C)cn(Cc2nnc(-c3ccc(F)c(OC)c3F)s2)c1=O | -5.85 | 17.9 | 5.03 | -4.57 | 72.7 | 7.36 | 2.54 | 20.6 |  |  |  |  |  |  |  | 
22 | O=S(=O)(c1ccccc1)N(CC(F)(F)F)c1ccc(C(O)(C(F)(F)F)C(F)(F)F)cc1 | -6.61 | 0.186 | 11.1 | -5.89 | 64.2 | 22.5 | -2.07 | 50.9 |  |  |  |  |  |  |  | 
23 | CCC(=O)N[C@@H]1CC[C@H](C(=O)N(C)c2ccc(-c3nc4ccccc4o3)cc2)C1 | 4.61 | 5.39 | -7.15 | 3.97 | 54.4 | -5.03 | 1.95 | 37.2 |  |  |  |  |  |  |  | 
24 | Cn1cncc1[C@](O)(COc1ccc(C#N)cc1-c1ccc(OC(F)(F)F)cc1)c1ccc(C#N)cc1 | 0.531 | -2.99 | -9.34 | 10.6 | 62 | 7.95 | -1.26 | 37.9 |  |  |  |  |  |  |  | 
